The source of these data is publication PMC4061985 (Journal of immunology (Baltimore, Md. : 1950), 2009).

Residues, ends and D or L forms follow the SMILES beside them.

The first assay deals with HLA-DRA1/B1*0901, soluble recombinant protein (human).
Experiment: not given
Regarding TT 503–515 peptide, unmodified, the Kd (usually the equilibrium constant for the complex coming apart) turned out to be 73 nM.

A further assay concerns the target HLA-DR0901 protein (Homo sapiens, UniProt P01903+P01911, A100R/A103E/D57H/D86V/F55Y/F60I/F76Y/I96F/K127E/L162R/M171V/P40D/Q125H/Q99R/R33Q/R42F/S133A/S66N/T210M/V115G/W38K/Y107V/Y59G/Y89S). The experiment in a line: Peptide binding competition assay, DR0901.
`CC[C@H](C)[C@H](NC(=O)[C@H](CCCCN)NC(=O)[C@H](CC(=O)O)NC(=O)[C@H](CC(C)C)NC(=O)[C@H](CO)NC(=O)[C@H](Cc1ccc(O)cc1)NC(=O)[C@H](CC(N)=O)NC(=O)[C@H](Cc1ccccc1)NC(=O)[C@H](CC(N)=O)NC(=O)[C@@H](N)CC(C)C)C(=O)N[C@@H](CO)C(=O)N[C@H](C(=O)N[C@@H](CC(=O)O)C(=O)O)C(C)C` [LNFNYSLDKISVD] (H-LNFNYSLDKISVD-OH) yielded a Kd of 770 ± 100 nM.

Compound `CC[C@H](C)[C@H](NC(=O)[C@H](CCCCN)NC(=O)[C@H](CC(=O)O)NC(=O)[C@H](CC(C)C)NC(=O)[C@H](Cc1c[nH]cn1)NC(=O)[C@H](Cc1ccc(O)cc1)NC(=O)[C@H](CC(N)=O)NC(=O)[C@H](Cc1ccccc1)NC(=O)[C@H](CC(N)=O)NC(=O)[C@@H](N)CC(C)C)C(=O)N[C@H](C(=O)N[C@H](C(=O)N[C@@H](CC(=O)O)C(=O)O)C(C)C)[C@@H](C)CC` [LNFNYHLDKIIVD] (H-LNFNYHLDKIIVD-OH) had an equilibrium dissociation constant (Kd) of 80 ± 15 nM.

On to `CC[C@H](C)[C@H](NC(=O)[C@H](CCCCN)NC(=O)[C@H](CC(=O)O)NC(=O)[C@H](CC(C)C)NC(=O)[C@H](CO)NC(=O)[C@H](Cc1ccc(O)cc1)NC(=O)[C@H](CC(N)=O)NC(=O)[C@@H](NC(=O)[C@H](CC(N)=O)NC(=O)[C@@H](N)CC(C)C)C(C)C)C(=O)N[C@H](C(=O)N[C@H](C(=O)N[C@@H](CC(=O)O)C(=O)O)C(C)C)[C@@H](C)CC` [LNVNYSLDKIIVD] (H-LNVNYSLDKIIVD-OH), for which the Kd amounted to 440 ± 130 nM.

Turning to `CC[C@H](C)[C@H](NC(=O)[C@H](CC(N)=O)NC(=O)[C@H](CC(=O)O)NC(=O)[C@H](CC(C)C)NC(=O)[C@H](CO)NC(=O)[C@H](Cc1ccc(O)cc1)NC(=O)[C@H](CC(N)=O)NC(=O)[C@H](Cc1ccccc1)NC(=O)[C@H](CC(N)=O)NC(=O)[C@@H](N)CC(C)C)C(=O)N[C@H](C(=O)N[C@H](C(=O)N[C@@H](CC(=O)O)C(=O)O)C(C)C)[C@@H](C)CC` [LNFNYSLDNIIVD] (H-LNFNYSLDNIIVD-OH), binding was characterised by a dissociation constant (Kd) of 27 ± 1 nM.

For `CC[C@H](C)[C@H](NC(=O)[C@H](CCCCN)NC(=O)[C@H](CC(=O)O)NC(=O)[C@H](CC(C)C)NC(=O)[C@H](CO)NC(=O)[C@H](Cc1ccc(O)cc1)NC(=O)[C@H](CC(N)=O)NC(=O)[C@H](Cc1ccc(O)cc1)NC(=O)[C@H](CC(N)=O)NC(=O)[C@@H](N)CC(C)C)C(=O)N[C@H](C(=O)N[C@H](C(=O)N[C@@H](CC(=O)O)C(=O)O)C(C)C)[C@@H](C)CC` [LNYNYSLDKIIVD] (H-LNYNYSLDKIIVD-OH), the dissociation constant (Kd) was determined as 113 ± 40 nM.

In turn, `CC[C@H](C)[C@H](NC(=O)[C@H](CO)NC(=O)[C@H](CC(=O)O)NC(=O)[C@H](CC(C)C)NC(=O)[C@H](CO)NC(=O)[C@H](Cc1ccc(O)cc1)NC(=O)[C@H](CC(N)=O)NC(=O)[C@H](Cc1ccccc1)NC(=O)[C@H](CC(N)=O)NC(=O)[C@@H](N)CC(C)C)C(=O)N[C@H](C(=O)N[C@H](C(=O)N[C@@H](CC(=O)O)C(=O)O)C(C)C)[C@@H](C)CC` [LNFNYSLDSIIVD] (H-LNFNYSLDSIIVD-OH) showed a Kd of 110 ± 45 nM.

Take `CC[C@H](C)[C@H](NC(=O)[C@H](C)NC(=O)[C@H](CC(=O)O)NC(=O)[C@H](CC(C)C)NC(=O)[C@H](CO)NC(=O)[C@H](Cc1ccc(O)cc1)NC(=O)[C@H](CC(N)=O)NC(=O)[C@H](Cc1ccccc1)NC(=O)[C@H](CC(N)=O)NC(=O)[C@@H](N)CC(C)C)C(=O)N[C@H](C(=O)N[C@H](C(=O)N[C@@H](CC(=O)O)C(=O)O)C(C)C)[C@@H](C)CC` [LNFNYSLDAIIVD] (H-LNFNYSLDAIIVD-OH): the dissociation constant Kd stood at 65 ± 20 nM.
